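GI50 = concentration required for 50% inhibition of growth. The concentration for full growth arrest is given as TGI.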
What was measured:
Assay in all cases: NCI-60 cell line screen, 384-well format
UACC-62 melanoma = test system: UACC-62 melanoma
RPMI-8226 leukemia = test system: RPMI-8226 leukemia
M14 melanoma = test system: M14 melanoma
NCI-H522 lung = test system: NCI-H522 lung
HCT-116 colon = test system: HCT-116 colon
SF-268 CNS = test system: SF-268 CNS
SK-MEL-28 melanoma = test system: SK-MEL-28 melanoma
HL-60(TB) leukemia = test system: HL-60(TB) leukemia
ACHN renal = test system: ACHN renal
SW-620 colon = test system: SW-620 colon
SNB-19 CNS = test system: SNB-19 CNS
SF-295 CNS = test system: SF-295 CNS
SF-539 CNS = test system: SF-539 CNS
OVCAR-5 ovarian = test system: OVCAR-5 ovarian
RXF 393 renal = test system: RXF 393 renal
MDA-MB-468 breast = test system: MDA-MB-468 breast
U251 glioblastoma = test system: U251 glioblastoma
OVCAR-3 ovarian = test system: OVCAR-3 ovarian
SNB-75 CNS = test system: SNB-75 CNS
CCRF-CEM leukemia = test system: CCRF-CEM leukemia
LOX IMVI melanoma = test system: LOX IMVI melanoma
DU-145 prostate = test system: DU-145 prostate
MOLT-4 leukemia = test system: MOLT-4 leukemia
MDA-MB-231 breast = test system: MDA-MB-231 breast
HOP-62 NSCLC = test system: HOP-62 NSCLC
NCI-H23 lung = test system: NCI-H23 lung
HT29 colon = test system: HT29 colon
NCI/ADR-RES ovarian = test system: NCI/ADR-RES ovarian
MCF7 breast = test system: MCF7 breast
K-562 leukemia = test system: K-562 leukemia
OVCAR-8 ovarian = test system: OVCAR-8 ovarian
T-47D breast = test system: T-47D breast
BT-549 breast = test system: BT-549 breast
UO-31 renal = test system: UO-31 renal
HCT-15 colon = test system: HCT-15 colon
A549 NSCLC = test system: A549 NSCLC
786-0 renal = test system: 786-0 renal
MALME-3M melanoma = test system: MALME-3M melanoma
SN12C renal = test system: SN12C renal
SK-OV-3 ovarian = test system: SK-OV-3 ovarian
CAKI-1 renal = test system: CAKI-1 renal
HOP-92 NSCLC = test system: HOP-92 NSCLC

O=C(O)CCCc1ccc(N(CCCl)CCCl)cc1
GI50 (UACC-62 melanoma): 12 µM | GI50 (RPMI-8226 leukemia): 6.45 µM | TGI (RPMI-8226 leukemia): 23.6 µM | GI50 (M14 melanoma): 19.5 µM | GI50 (NCI-H522 lung): 13.3 µM | TGI (NCI-H522 lung): 27.5 µM | GI50 (HCT-116 colon): 28.4 µM | GI50 (SF-268 CNS): 9.3 µM | GI50 (SK-MEL-28 melanoma): 57 µM | GI50 (HL-60(TB) leukemia): 1.64 µM | TGI (HL-60(TB) leukemia): 3.75 µM | GI50 (ACHN renal): 8.31 µM | TGI (ACHN renal): 35 µM | GI50 (SW-620 colon): 16.9 µM | GI50 (SNB-19 CNS): 35.3 µM | GI50 (SF-295 CNS): 18.3 µM | TGI (SF-295 CNS): 41.8 µM | GI50 (SF-539 CNS): 16.7 µM | TGI (SF-539 CNS): 60 µM | GI50 (OVCAR-5 ovarian): 45.7 µM | GI50 (RXF 393 renal): 14.7 µM | TGI (RXF 393 renal): 29.8 µM | GI50 (MDA-MB-468 breast): 4.37 µM | TGI (MDA-MB-468 breast): 21.4 µM | GI50 (U251 glioblastoma): 11.6 µM | GI50 (OVCAR-3 ovarian): 28.4 µM | GI50 (SNB-75 CNS): 19.8 µM | GI50 (CCRF-CEM leukemia): 3.29 µM | TGI (CCRF-CEM leukemia): 8.55 µM | GI50 (LOX IMVI melanoma): 30.4 µM | GI50 (DU-145 prostate): 27.3 µM | TGI (DU-145 prostate): 99.4 µM | GI50 (MOLT-4 leukemia): 1.26 µM | TGI (MOLT-4 leukemia): 2.52 µM | GI50 (MDA-MB-231 breast): 84.7 µM | GI50 (HOP-62 NSCLC): 13.6 µM | TGI (HOP-62 NSCLC): 45.8 µM | GI50 (NCI-H23 lung): 19.4 µM | TGI (NCI-H23 lung): 99.8 µM | GI50 (HT29 colon): 51.9 µM | GI50 (NCI/ADR-RES ovarian): 19.9 µM | GI50 (MCF7 breast): 41 µM | GI50 (K-562 leukemia): 41.6 µM | GI50 (OVCAR-8 ovarian): 14.2 µM | GI50 (T-47D breast): 36 µM | GI50 (BT-549 breast): 14.1 µM | GI50 (UO-31 renal): 39.8 µM | GI50 (HCT-15 colon): 23.7 µM | GI50 (A549 NSCLC): 33.3 µM | GI50 ([…]-0 renal): 24.3 µM | GI50 (MALME-3M melanoma): 29.9 µM | GI50 (SN12C renal): 10.4 µM | GI50 (SK-OV-3 ovarian): 41.1 µM | GI50 (CAKI-1 renal): 8.78 µM | GI50 (HOP-92 NSCLC): 25.3 µM
